The conditions of test [1]: fructose-loaded rats, oral once a day for 21 days, pitavastatin 10 mg/kg, amlodipine 15 mg/kg; for plasma triglyceride level compared with the control group (FIG. 1): Dunnett's test, combination p<0.01.
The conditions of test [2]: fructose-loaded rats, oral once a day for 21 days, pitavastatin 10 mg/kg, amlodipine 15 mg/kg; for plasma insulin level compared with the control group (FIG. 2): Dunnett's test, combination p<0.05.
Setting [3] is: blood 22 hours after final administration.

With `CCOC(=O)C1=C(COCCN)NC(C)=C(C(=O)OC)C1c1ccccc1Cl` (stereo not drawn) [amlodipine, amlodipine besylate], the “plasma triglyceride level compared with the control group (FIG. 1)” value in test [1] is reported as “almost equivalent to those of the control group”. Further, in test [2], the “plasma insulin level compared with the control group (FIG. 2)” value is listed as “not significantly changed as compared with the control group”.

Consider `O=C([O-])C[C@H](O)C[C@H](O)/C=C/c1c(C2CC2)nc2ccccc2c1-c1ccc(F)cc1.O=C([O-])C[C@H](O)C[C@H](O)/C=C/c1c(C2CC2)nc2ccccc2c1-c1ccc(F)cc1.[Ca+2]` [pitavastatin, Pitavastatin calcium], for which, in test [1], the “plasma triglyceride level compared with the control group (FIG. 1)” value is “almost equivalent to those of the control group”. The “relative plasma triglyceride level (based on the control group)” value in test [1] (setting [3]) worked out at 0.966. In addition, in test [2], the “plasma insulin level compared with the control group (FIG. 2)” value is reported as “not significantly changed as compared with the control group”. The “relative plasma insulin level (based on the control group)” value in test [2] (setting [3]) worked out at 0.971.

(Values after US8604054B2, “Triglyceride-lowering agent and hyperinsulinism-ameliorating agent” (Kowa Co., Ltd., priority 2006, dated 2013).)
